For 39 molecules, IC50 and IC90 results are on record in ChEMBL document CHEMBL4483862, “Open-source discovery of chemical leads for next-generation chemoprotective antimalarials” (2018).

Usually IC50 stands for the concentration needed to halve the response being measured. The IC90 is the concentration at which the effect reaches the 90% level.

This assay deals with Plasmodium berghei. In words: Luciferase/luciferin-expressing antifolate-resistant parasites were used to infect a culture of HepG2 cells that were pre-incubated with compounds. Infected hepatocytes emit light due to the luciferase reaction. Assay results are presented as the percent inhibition of light emission compared to control. […]. The format is functional. As to conditions: sporozoite; for IC90: read-out: LUCIFERASE INFECTION ASSAY - IC90.

[1] abbreviates: read-out: LUCIFERASE INFECTION ASSAY - IC50.

Molecules are shown by their SMILES.

Take `CCCNC(=O)c1c(NC(=O)c2ccc(C(F)(F)F)cc2)nc2ccc(C)cn12`: the IC90 is 1.11 µM. Moreover, the IC50 (FFLUC_HILL_SLOPE 11.2, FFLUC_R_SQUARED 0.698, HEPG2TOX_HILL_SLOPE 0.884, HEPG2TOX_R_SQUARED 0.902, PBLUC_HILL_SLOPE 2.26, PBLUC_R_SQUARED 0.742, read-out: LUCIFERASE INFECTION ASSAY - IC50) was 0.419 µM.
In the case of `C=C1CC2(C)C(=CC1=O)CCC1C2CCC2(C)C(O)CCC12` (stereo not drawn), the IC90 amounted to 5.89 µM. Further, the IC50 (HEPG2TOX_HILL_SLOPE 3.95, HEPG2TOX_R_SQUARED 0.554, PBLUC_HILL_SLOPE 10.4, PBLUC_R_SQUARED 0.356, read-out: LUCIFERASE INFECTION ASSAY - IC50) stood at 4.77 µM.
As for `COc1cc2c(cc1OC)C(c1cccs1)N(C(=O)Nc1cc(C)on1)CC2` (stereo not drawn), the IC90 is 2.7 µM. Moreover, the IC50 (HEPG2TOX_HILL_SLOPE 0.982, HEPG2TOX_R_SQUARED 0.92, PBLUC_HILL_SLOPE 3.46, PBLUC_R_SQUARED 0.391, read-out: LUCIFERASE INFECTION ASSAY - IC50) came out at 1.43 µM.
Turning to `OCc1ccc(-c2cnc3ccc(-c4ccccc4)nn23)cc1`, the IC90 was 3.93 µM. Moreover, the IC50 (HEPG2TOX_HILL_SLOPE 2.14, HEPG2TOX_R_SQUARED 0.888, PBLUC_HILL_SLOPE 1.3, PBLUC_R_SQUARED 0.716, read-out: LUCIFERASE INFECTION ASSAY - IC50) stood at 0.73 µM.
Consider `COc1ccccc1/C=C(\C#N)c1ccc(C)cc1`, for which the IC90 is > 13.2 µM. In addition, under “PBLUC_HILL_SLOPE 1.71, PBLUC_R_SQUARED 0.0423, read-out: LUCIFERASE INFECTION ASSAY - IC50”, the IC50 worked out at 10.6 µM.
Consider `O=C(Nc1ncc(Cc2cccc(C(F)(F)F)c2)s1)c1ccc(-n2ccnc2)nc1`, for which the IC90 was 7.33 µM. Also, the IC50 (FFLUC_HILL_SLOPE 11.4, FFLUC_R_SQUARED 0.309, HEPG2TOX_HILL_SLOPE 1.14, HEPG2TOX_R_SQUARED 0.957, PBLUC_HILL_SLOPE 2.81, PBLUC_R_SQUARED 0.544, read-out: LUCIFERASE INFECTION ASSAY - IC50) was 3.35 µM.
On to `CC(C(=O)Nc1cc(S(=O)(=O)N2CCCCC2)ccc1Cl)N1CCN(c2ccccn2)CC1` (stereo not drawn), for which the IC90 was > 10 µM. Besides, the IC50 under setting [1] was > 10 µM.
For the molecule `O=C(Cn1nnc(-c2ccccc2)n1)N/N=C/c1c(O)ccc2ccccc12`, the IC90 is > 10 µM. Besides, the IC50 (HEPG2TOX_HILL_SLOPE 16.4, HEPG2TOX_R_SQUARED 0.547, PBLUC_HILL_SLOPE 10.9, PBLUC_R_SQUARED 0.367, read-out: LUCIFERASE INFECTION ASSAY - IC50) was 8.32 µM.
On to `Cc1cc(C)cc(OCC(O)CNC(C)CCC(C)C)c1` (stereo not drawn), for which the IC90 is > 10 µM. Also, the IC50 under setting [1] was > 10 µM.
On to `CC(OC(=O)c1n[nH]c(=O)c2ccccc12)C(=O)N(CCC#N)c1ccccc1` (stereo not drawn), for which the IC90 is > 10 µM. Moreover, the IC50 under setting [1] is > 10 µM.
For `N#Cc1ccc(-c2cnc3cnc(-c4cccc(C(N)=O)c4)cn23)cc1`, the IC90 turned out to be 8.67 µM. Besides, the IC50 (PBLUC_HILL_SLOPE 12.9, PBLUC_R_SQUARED 0.447, read-out: LUCIFERASE INFECTION ASSAY - IC50) amounted to 7.32 µM.
`Cc1cc(C)c(C)c(S(=O)(=O)N2CCN(CC(=O)c3c(N)n(Cc4ccccc4)c(=O)n(C)c3=O)CC2)c1C`: the IC90 is > 10 µM. Besides, the IC50 (FFLUC_HILL_SLOPE 17, FFLUC_R_SQUARED 0.51, read-out: LUCIFERASE INFECTION ASSAY - IC50) is > 10 µM.
Turning to `Brc1ccc(OCc2ccccc2)c(CNCc2cccnc2)c1`, the IC90 was > 8.61 µM. Besides, the IC50 under setting [1] is > 8.61 µM.
Consider `COc1cc(-c2cnn3ccc(Nc4ccc(C(C)C)cc4)nc23)cc(OC)c1OC`, for which the IC90 was 4.97 µM. In addition, for the setting “HEPG2TOX_HILL_SLOPE 4.98, HEPG2TOX_R_SQUARED 0.891, PBLUC_HILL_SLOPE 3.46, PBLUC_R_SQUARED 0.366, read-out: LUCIFERASE INFECTION ASSAY - IC50”, the IC50 was determined as 2.63 µM.
On to `CCc1cc2c(Sc3nnc(N)s3)ncnc2s1`, for which the IC90 was > 11.2 µM. Further, the IC50 under setting [1] is > 11.2 µM.
For `CC(C)(C)c1ccc(C(=N)SC(C(=O)C(F)(F)F)c2ccccc2)cc1` (stereo not drawn), the IC90 came to 2.03 µM. Under “FFLUC_HILL_SLOPE 64.5, FFLUC_R_SQUARED 0.585, PBLUC_HILL_SLOPE 1.09, PBLUC_R_SQUARED 0.88, read-out: LUCIFERASE INFECTION ASSAY - IC50”, the IC50 stood at 0.269 µM.
Regarding `COc1ccc(Sc2ccc(NC(=O)C(C)n3ccnc3)cc2Cl)cc1` (stereo not drawn), the IC90 is > 10 µM. The IC50 under setting [1] is > 10 µM.
For the molecule `COc1cccc(N(C)C(=O)c2nn(Cc3ccccc3)c(=O)c3ccccc23)n1`, the IC90 is > 10 µM. The IC50 under setting [1] was > 10 µM.
Turning to `COc1ccc(C(C)(O)c2nc(-c3ccccc3C)cs2)cc1` (stereo not drawn), the IC90 was found to be 3.04 µM. Besides, the IC50 (HEPG2TOX_HILL_SLOPE 3.12, HEPG2TOX_R_SQUARED 0.895, PBLUC_HILL_SLOPE 4.56, PBLUC_R_SQUARED 0.531, read-out: LUCIFERASE INFECTION ASSAY - IC50) turned out to be 1.88 µM.
`O=S(=O)(c1ccc(Cl)cc1)c1nc(Nc2ccccc2)sc1Cl`: the IC90 was > 10 µM. Moreover, the IC50 (HEPG2TOX_HILL_SLOPE 3.54, HEPG2TOX_R_SQUARED 0.784, PBLUC_HILL_SLOPE 12.5, PBLUC_R_SQUARED 0.109, read-out: LUCIFERASE INFECTION ASSAY - IC50) was 9.24 µM.
In the case of `O=C(NCc1cccc(Cl)c1)C1=COC2=NC(=O)N(Cc3cccc(Cl)c3)CCN12`, the IC90 is > 10 µM. Under setting [1], the IC50 is > 10 µM.
As for `CCOc1ccc(-n2c(SCC(=O)N(C)Cc3ccccc3)nc3ccccc32)cc1`, the IC90 is > 10 µM. For the same molecule, the IC50 under setting [1] was > 10 µM.
For `CC(C)(C)c1cc(C(=O)N/N=C/c2ccc([N+](=O)[O-])s2)[nH]n1`, the IC90 is > 10.3 µM. Further, the IC50 (PBLUC_HILL_SLOPE 1.97, PBLUC_R_SQUARED 0.294, read-out: LUCIFERASE INFECTION ASSAY - IC50) is 3.6 µM.
For the molecule `O=c1[nH]c2ccc(-c3csc(-c4ccsc4)n3)cc2[nH]1`, the IC90 was > 10 µM. Further, the IC50 under setting [1] is 4.23 µM.
Take `COc1ccc(-c2cnc3sc(NCCc4ccc(S(N)(=O)=O)cc4)nn23)cc1OC`: the IC90 amounted to 6.81 µM. The IC50 (PBLUC_HILL_SLOPE 16.2, PBLUC_R_SQUARED 0.321, read-out: LUCIFERASE INFECTION ASSAY - IC50) turned out to be 5.94 µM.
Take `COc1ccccc1-[n+]1c(C)cc(C=C2Sc3ccc4ccccc4c3N2C)cc1C`: the IC90 was found to be 0.611 µM. The IC50 (HEPG2TOX_HILL_SLOPE 0.863, HEPG2TOX_R_SQUARED 0.853, PBLUC_HILL_SLOPE 2.28, PBLUC_R_SQUARED 0.851, read-out: LUCIFERASE INFECTION ASSAY - IC50) was determined as 0.233 µM.
Regarding `COc1ccc(-c2csc3ncnc(NC4CCN(S(C)(=O)=O)CC4)c23)cc1`, the IC90 is > 10 µM. In addition, the IC50 (FFLUC_HILL_SLOPE 15, FFLUC_R_SQUARED 0.503, HEPG2TOX_HILL_SLOPE 1.74, HEPG2TOX_R_SQUARED 0.848, read-out: LUCIFERASE INFECTION ASSAY - IC50) was > 10 µM.
Turning to `CCN(c1ccccc1)S(=O)(=O)c1ccc(Cl)c(C(=O)Nc2ccn(C)n2)c1`, the IC90 was > 10 µM. Also, the IC50 under setting [1] was > 10 µM.
Consider `CC(C)CCn1c(SCC(=O)N2CCc3ccccc3C2)nc2ccccc2c1=O`, for which the IC90 is > 10 µM. Further, under setting [1], the IC50 is > 10 µM.
Consider `CN(C)c1ccc(NC(=O)C2(C)CCCCN2C)cc1` (stereo not drawn), for which the IC90 was > 12 µM. For the same molecule, under “PBLUC_HILL_SLOPE 1.77, PBLUC_R_SQUARED 0.752, read-out: LUCIFERASE INFECTION ASSAY - IC50”, the IC50 worked out at 6.68 µM.
In the case of `NS(=O)(=O)c1cccc(NC(=O)CCc2ccccc2Cl)c1`, the IC90 is > 10 µM. The IC50 under setting [1] is > 10 µM.
As for `Cc1cc(NC(=O)CNC(c2ccc(C3CCCCC3)cc2)C(C)C)n(C2CCS(=O)(=O)C2)n1` (stereo not drawn), the IC90 was 9.9 µM. Also, under “PBLUC_HILL_SLOPE 35.5, PBLUC_R_SQUARED 0.454, read-out: LUCIFERASE INFECTION ASSAY - IC50”, the IC50 was determined as 9.31 µM.
Take `CC1CCC2(CC1)NC(=O)N(CC(=O)NCC(F)(F)F)C2=O` (stereo not drawn): the IC90 was > 10 µM. Under setting [1], the IC50 was > 10 µM.
In the case of `O=C1CC2(CCCC2)C(=O)N1CC(O)c1ccccc1` (stereo not drawn), the IC90 is > 10 µM. Moreover, the IC50 under setting [1] was > 10 µM.
For the molecule `O=C(Nc1cnc2ccccc2c1)c1cccc(NC(=O)c2cccs2)c1`, the IC90 is > 10 µM. In addition, the IC50 (PBLUC_HILL_SLOPE 0.461, PBLUC_R_SQUARED 0.664, read-out: LUCIFERASE INFECTION ASSAY - IC50) is 0.217 µM.
Consider `CCN(CCO)c1ccc(NC2=C(NC(C)=O)C(=O)c3ccccc3C2=O)cc1`, for which the IC90 is > 10 µM. For the same molecule, where the note is “FFLUC_HILL_SLOPE 10.4, FFLUC_R_SQUARED 0.141, HEPG2TOX_HILL_SLOPE 0.681, HEPG2TOX_R_SQUARED 0.905, PBLUC_HILL_SLOPE 1.27, PBLUC_R_SQUARED 0.687, read-out: LUCIFERASE INFECTION ASSAY - IC50”, the IC50 is 2.16 µM.
With `Nc1ncnc(N/N=C/c2c(O)ccc3ccccc23)c1[N+](=O)[O-]`, the IC90 is > 10 µM. For the same molecule, the IC50 (HEPG2TOX_HILL_SLOPE 0.612, HEPG2TOX_R_SQUARED 0.82, read-out: LUCIFERASE INFECTION ASSAY - IC50) is > 10 µM.
For `Cc1ccccc1-c1cnc2cnc(-c3ccc(CNc4ccccc4)cc3)cn12`, the IC90 was > 8.45 µM. For the setting “PBLUC_HILL_SLOPE 14.2, PBLUC_R_SQUARED 0.506, read-out: LUCIFERASE INFECTION ASSAY - IC50”, the IC50 came to 8.05 µM.
As to `CC(C)C(=O)Nc1ccc(-c2nc3ccccc3[nH]2)cc1`, the IC90 is > 11.8 µM. The IC50 (FFLUC_HILL_SLOPE 2.58, FFLUC_R_SQUARED 0.591, PBLUC_HILL_SLOPE 1.21, PBLUC_R_SQUARED 0.595, read-out: LUCIFERASE INFECTION ASSAY - IC50) stood at 4.49 µM.
